Test results published in patent US20250092056A1, “URACIL DERIVATIVES HAVING VIRUS REPLICATION INHIBITORY ACTIVITY AND PHARMACEUTICAL COMPOSITION COMPRISING THE SAME” (Shionogi & Co., Ltd., priority 2022, published 2025).

Assays:
[1] = system: SARS-CoV-2; test: Cytopathic effect (CPE) suppression effect confirmation test using HEK293T/ACE2-TMPRSS2 cells; assay type: cell-based; details: Severe acute respiratory syndrome coronavirus 2, HEK-293T; 50% SARS-CoV-2 infected cell death inhibitory concentration; HEK293T/ACE2-TMPRSS2 cells; read-out: EC50
[2] = target: Recombinant SARS-CoV-2 3CL Protease (Severe acute respiratory syndrome coronavirus 2 (2019-nCoV) (SARS-CoV-2), UniProt P0DTD1); test: biochemical; assay type: biochemical; details: 50% SARS-CoV-2 3CL protease inhibitory concentration; read-out: IC50

## N#CCn1c(-c2ccc(C3CC3)cc2)c(N2CCCCC2)c(=O)n(-c2cncc(Cl)c2)c1=O [Compound I-265]
[1]
  EC50: 100 to 1000 nM
[2]
  IC50: 10 to 100 nM

## N#CCn1c(C2CCC(F)(F)CC2)c(-c2ccnc(C(F)(F)F)c2)c(=O)n(-c2cncc(Cl)c2)c1=O [Compound I-266]
[1]
  EC50: 100 to 1000 nM
[2]
  IC50: 10 to 100 nM

## Cc1ccc(-c2c(-c3ccc(F)c(Cl)c3)c(=O)n(-c3cncc(C)c3)c(=O)n2CC#N)cc1 [Compound I-270]
[1]
  EC50: < 100 nM
[2]
  IC50: < 10 nM

## COc1ccc(-c2c(-c3ccc(F)c(Cl)c3)c(=O)n(-c3cncc(C)c3)c(=O)n2CC#N)cc1 [Compound I-271]
[1]
  EC50: < 100 nM
[2]
  IC50: < 10 nM

## Cc1cncc(-n2c(=O)c(-c3ccc(F)c(Cl)c3)c(-c3ccc(F)cc3)n(CC#N)c2=O)c1 [Compound I-272]
[1]
  EC50: < 100 nM
[2]
  IC50: < 10 nM

## Cc1cncc(-n2c(=O)c(-c3ccc(F)c(Cl)c3)c(-c3ccc(C(N)=O)cc3)n(CC#N)c2=O)c1 [Compound I-273]
[1]
  EC50: < 100 nM
[2]
  IC50: < 10 nM

## Cc1cncc(-n2c(=O)c(-c3ccc(F)c(Cl)c3)c(-c3ccc(N(C)C)cc3)n(CC#N)c2=O)c1 [Compound I-274]
[1]
  EC50: < 100 nM
[2]
  IC50: < 10 nM

## Cc1cncc(-n2c(=O)c(-c3ccc(F)c(Cl)c3)c(-c3ccc(S(N)(=O)=O)cc3)n(CC#N)c2=O)c1 [Compound I-275]
[1]
  EC50: 100 to 1000 nM
[2]
  IC50: < 10 nM

## Cc1cncc(-n2c(=O)c(-c3ccc(F)c(Cl)c3)c(NS(=O)(=O)c3ccccc3)n(CC#N)c2=O)c1 [Compound I-276]
[1]
  EC50: < 100 nM
[2]
  IC50: < 10 nM

## Cc1cc(-n2c(=O)c(-c3ccc(F)c(Cl)c3)c(N3CC4(C3)CC(F)(F)C4)n(CC#N)c2=O)c[n+]([O-])c1 [Compound I-278]
[1]
  EC50: 100 to 1000 nM
[2]
  IC50: < 10 nM

## Cc1cncc(-n2c(=O)c(-c3ccc(F)c(Cl)c3)c(-c3cn[nH]c3)n(CC#N)c2=O)c1 [Compound I-279]
[1]
  EC50: < 100 nM
[2]
  IC50: < 10 nM

## Cc1cncc(-n2c(=O)c(-c3ccc(F)c(Cl)c3)c(Oc3ccccc3)n(CC#N)c2=O)c1 [Compound I-280]
[1]
  EC50: < 100 nM
[2]
  IC50: < 10 nM

## N#CCn1cc(-c2ccc(F)c(Cl)c2)c(=O)n(-c2cncc(Cl)c2)c1=O [Compound I-281]
[1]
  EC50: < 100 nM
[2]
  IC50: 10 to 100 nM

## CCCCc1c(N2CC3(CCOC3)C2)n(CC#N)c(=O)n(-c2cncc(Cl)c2)c1=O [Compound I-284]
[1]
  EC50: < 100 nM
[2]
  IC50: 10 to 100 nM

## CCCCc1c(-c2ccc(F)cc2)n(CC#N)c(=O)n(-c2cncc(Cl)c2)c1=O [Compound I-286]
[1]
  EC50: 100 to 1000 nM
[2]
  IC50: 10 to 100 nM

## N#CCn1c(N2CC(F)(c3ncccn3)C2)c(-c2ccc(F)c(Cl)c2)c(=O)n(-c2cncc(Cl)c2)c1=O [Compound I-287]
[1]
  EC50: < 100 nM
[2]
  IC50: < 10 nM

## CC(C)(O)C1(F)CN(c2c(-c3ccc(F)c(Cl)c3)c(=O)n(-c3cncc(Cl)c3)c(=O)n2CC#N)C1 [Compound I-289]
[1]
  EC50: < 100 nM
[2]
  IC50: < 10 nM

## N#CCn1c(N2CC(F)(F)C2)c(-c2ccc(F)c(Cl)c2)c(=O)n(-c2cncc(Cl)c2)c1=O [Compound I-290]
[1]
  EC50: < 100 nM
[2]
  IC50: < 10 nM

## Cc1cncc(-n2c(=O)c(-c3cc(F)c(F)c(F)c3)c(/C=C/C(C)(C)O)n(CC#N)c2=O)c1 [Compound I-291]
[1]
  EC50: < 100 nM
[2]
  IC50: 10 to 100 nM

## N#CCn1c(N2CC3(CCOCC3)C2)c(-c2ccc(F)c(Cl)c2)c(=O)n(-c2cncc(Cl)c2)c1=O [Compound I-292]
[1]
  EC50: < 100 nM
[2]
  IC50: < 10 nM

## N#CCn1c(N2CC(C(F)(F)F)C2)c(-c2ccc(F)c(Cl)c2)c(=O)n(-c2cncc(F)c2)c1=O [Compound I-295]
[1]
  EC50: < 100 nM
[2]
  IC50: < 10 nM
